Laboratory results from patent publication US7341991B2, “Inhibitors of amyloid precursor protein processing” (Posco, priority 2004, dated 2008).
“Also recorded” adds a separate entry of the source. Primed or numbered codes have the meaning given here. Where no end group is shown, it is not given here. [ ]: non-standard residue; d: D form. FITC′ = fluorescein isothiocyanate label; Ahx = NCCCCCC(=O)O

How the values were obtained:
[1] = system: cleavage of Substrate M by rhBACE (recombinant human β-secretase); test: Fluorometric (FRET) assay for cleavage of F-Substrate M by β-secretase; format: biochemical; settings: for inhibition of cleavage of Substrate M by β-secretase: in vitro; for inhibitory activity group on Substrate M cleavage: tested at various concentrations (FIG. 8); for inhibitory activity of deletion peptides on cleavage of Substrate M: 10 inhibitor/substrate ratio, Substrate M 50 μM
From the text: This assay system utilizes fluorescence resonance energy transfer (FRET) technology. Substrate M was synthesized with two fluorophores, a fluorescent donor and a proprietary quenching acceptor (purchased from a commercial source, R&D Systems). […] Upon cleavage of substrate by β-secretase, the fluorophore is separated from the quenching group, restoring the full fluorescence yield of donor.
Substrate labeled with fluorophores will be called F-Substrate M (R&D Systems). Recombinant human β-secretase will be called rhBACE (recombinant human β-site APP cleavage enzyme) (purchased from R&D systems).
[…] Cleavage by rhBACE was detected by reading emitted fluorescence level.
In this assay system, fluorescence resonance energy transfer (FRET) technology was utilized. […] After pre-incubation, substrate and HC peptide mixture in assay buffer was transferred to FluoroNunc™ 96 well white plate (Nunc, Roskilde, Denmark), and rhBACE1 (70 nM) was added. Time-dependent emission of fluorescence (excitation at 320 nm, emission at 405 nm) was monitored in a Molecular Devices SpectraMax Gemini EM fluorescence reader (CA, USA) for 1 h at 37° C. All assays were carried out in duplicate.

[2] = system: APP processing in HEK293-APP cells; test: Cell based assay of APP processing (βCTF, Western blot) in HEK293-APP cells; design: species or system human
Procedure: In the neuronal cells of the brain, APP is processed by α-secretase or β-secretase. To investigate the effects of the inhibitors on the cell, a cell based assay system was developed as described in FIG. 10. C-terminal fragment of APP remaining on the cell membrane was detected by Western blot. The resulting C-terminal fragments, αCTF or βCTF are further processed by γ-secretase. However, if the cells are treated with the γ-secretase inhibitor, this processing is blocked. As a result, αCTF or βCTF accumulate in the cell. If β-secretase inhibitor or APP inhibitor is added, this processing is blocked and βCTF disappears.
To test APP inhibitor activities in cells, three complementary peptides, c-Sub M, c-Sub MΔC6, and c-Sub MΔN1C1, which show high absorbance in binding test, were added to whole cell extracts of HEK293-APP cells (Lanes 2, 3, and 4 in FIG. 11). In addition, γ-secretase inhibitor and cholesterol were added to the cells to increase βCTF level. Commercially available peptide-based β-secretase inhibitor was included as control (Lane 6, FIG. 11). To detect the N-terminal fragment of β-amyloid which is a product of APP processing, 6E10 antibody was employed. […] Recently, it has been reported that the commercially available peptide-based inhibitor had to be linked to an oligoarginine transporter peptide to have inhibitory activity against cells. Therefore, mimetic approach is adopted to produce cell permeable analogs. (Chang et al. J. Neurochemistry 2004; 89:1409-1416).
After confirming the ability of the oligo-arginine coupled APP inhibitors to enter the cells, the inhibitors were applied to HEK293-APP cells overexpressing APP to test their inhibitory activities on APP processing. […] This inhibitor started to show significant inhibitory activity beginning from 0.1 μM (lower panel).

[3] = system: Substrate M (SEVNLDAEFR, β-secretase cleavage site of APPsw); test: Binding of biotin-labeled Substrate M to immobilized complementary (HC) peptides; settings: biotin-labeled Sub M, peptide immobilized on plate
Procedure: (§1) Complementary peptides (0.2, 2, 20, and 200 μM) were dissolved in phosphate buffered saline (PBS) (pH 7.4) and fixed to microtiter wells for 5 hr at 37° C. The wells were blocked with blocking buffer (3% BSA/PBS) for 1 hr at 37° C. Either N-terminally biotinylated Substrate W or M (20 μM) in blocking buffer was added and incubated for overnight at 4° C. Streptavidin-horseradish peroxidase in blocking buffer was added to detect resulting bound substrates. The plate was incubated for 2 hr at room temperature (RT), followed by addition of 3, 3′, 5,5′-tetramethyl-benzidine (TMB) as substrate for horseradish peroxidase for color reaction.
(§2) Reacti-Bind™ maleic anhydride-activated polystyrene plate (Pierce, IL, USA) was coated with 50 μl of HC peptide (200 μM in distilled water) by chemical coupling for 3 h at room temperature (RT) and washed three times with phosphate buffered saline (PBS) containing 0.05% tween 20 (PBST). The plate was blocked with blocking buffer (0.5% gelatin in PBS) for 1 h at RT. After discarding blocking buffer, biotinylated BACE1 substrates (200 μM) in blocking buffer was applied on the plate and incubated for 2.5 h at RT. Each well was washed three times with PBST. The bound biotinylated BACE1 substrates were detected by incubation with streptavidin-horseradish peroxidase (Str-HRP, 125 mU/ml in blocking buffer) for 2 h at RT. Color reaction was carried out with 50 μl of 3,3′,5,5′-Tetramethylbenzidine Liquid Substrate (Sigma-Aldrich, MO, USA). After stopping the reaction by addition of an equal volume of 1 N HCl, absorbance at 450 nm was read in an automated ELISA reader (EL 312e, Bio-Tek Instruments, VT, USA). All assays were carried out in duplicate.

[4] = system: Aβ production in HEK 293-APP cells; test: Measurement of Aβ level in culture media (Aβ1-40 immunoassay); format: cell-based, human; settings: HEK293-APP cells
Procedure: Human embryonic kidney (HEK) 293 cells stably transformed with the gene for APP695 (HEK 293-APP) were used for studies on the inhibitory activity of HC peptides. HEK 293-APP cells were generously supplied by Dr. T W Kim (Columbia University, NY, USA). HEK 293-APP cells were cultured in Dulbecco's Modified Eagle's Medium (DMEM) (Invitrogen, CA, USA) with 10% fetal bovine serum (HyClone, UT, USA) and 300 μg/ml of geneticin (Invitrogen, CA, USA) in a humidified atmosphere of 5% CO2, 95% air at 37° C. Cells were subcultured after trypsinization, and the medium was changed every 2-3 days.
The culture media from the peptide-treated cells (see above) was harvested and centrifuged at 3500×g for 10 min. Amount of Aβ in the supernatant was determined with human Aβ1-40 immunoassay kits (Signal Select™, BioSource, CA, USA) according to the instruction provided by the company.

[5] = system: cleavage of APP by BACE1 (CTFβ) in HEK 293-APP cells; test: Level of CTFβ in treated cells (immunoblot, 6E10); format: cell-based, human; settings: HEK293-APP cells; for accumulation of cleavage product CTFβ: 9 h
Procedure: When the confluency of the cells reached 90%, the cells were washed with PBS once, and HC peptide in serum free DMEM was added to the cells. […] The lysed cells were centrifuged at 12000×g for 10 min at 4° C. The protein in the supernatant was determined by bicinchoninic acid assay (Pierce, IL, USA) [Smith, P. K., Krohn, R. I., Hermanson, G. T., Mallia, A. K., Gartner, F. H., Provenzano, M. D., Fujimoto, E. K., Goeke, N. M., Olson, B. J., and Klenk, D. C. […] After electrophoresis, the proteins in the gel were electrophoretically transferred onto a polyvinylidene difluoride (PVDF) membrane at 100 mA for 80 min. The blotted membrane was fixed with 0.2% glutaraldehyde in PBS for 45 min at RT and treated for 5 min in boiling PBS. CTFβ (the C-terminal fragment of APP generated by BACE1) was detected by treatment of the membrane with 0.5 μg/ml of anti-Aβ N terminal 6E10 antibody (Signetlabs, Inc., MA, USA) followed by incubation with 0.2 μg/ml of anti-mouse antibody coupled with HRP (Amersham Biosciences Ltd. Uppsala, Sweden). The developed film was scanned and the density of CTFβ band was determined by Scion Image Program (Scion Corporation, MD, USA).

[6] = target: T1, Substrate W (SEVKMDAEFR, β-secretase cleavage site of wild type APP) (Homo sapiens, UniProt P05067); test: Binding of biotin-labeled Substrate W to immobilized complementary (HC) peptides; settings: biotin-labeled Sub W, peptide immobilized on plate
T1 construct: purchased Peptron, Inc; host or cells: chemical synthesis
Procedure: as §1
In particular, for Substrate W, complementary peptides (200 μM) dissolved in phosphate buffered saline (PBS) (pH 7.4) were chemically coupled to Reacti-Bind Maleic Anhydride Activated Polystyrene wells (Pierce Biotechnology, Inc.) for overnight at room temperature (RT). Remaining active sites of the plate were inactivated by adding ethanolamine (1 M) for 1 hr at RT. The wells were blocked with blocking buffer (3% BSA/PBS) for 1 hr at RT. N-terminally biotinylated Substrate W (20 μM) in blocking buffer was added and incubated for 3 hr at RT. Streptavidin-horseradish peroxidase in blocking buffer was added to detect resulting bound substrates. The plate was incubated for 2 hr at room temperature (RT), followed by addition of 3,3′,5,5′-tetramethyl-benzidine (TMB) as substrate for horseradish peroxidase for color reaction.
as §2

c-Sub MΔN1C1-R9: c-Sub MΔN1C1 coupled with oligo-arginine (9 Arginines), labeled with FITC using a linker AHX ({FITC′-Ahx}-EFCIQIHFRRRRRRRRR)
inhibition of cleavage of Substrate M by β-secretase ([1]; rhBACE1): less inhibitory activity | inhibitory activity on APP processing ([2]; βCTF): inhibitory activity in a concentration dependent manner

SEFCIQIHF [c-Sub M ΔC1]
binding to Substrate M [3]: relatively high binding activity

SEFCI (SEFCI-NH2) [c-SubM ΔC5]
inhibitory activity group on Substrate M cleavage [1]: medium activity

NH2-(CH2)5-CO—Cys-Ile-Gln-Ile-His-Phe-NH2 ([Ahx]CIQIHF-NH2; N-terminus assumed; SMILES CC[C@H](C)[C@H](NC(=O)[C@H](CCC(N)=O)NC(=O)[C@@H](NC(=O)[C@H](CS)NC(=O)CCCCCN)[C@@H](C)CC)C(=O)N[C@@H](Cc1c[nH]cn1)C(=O)N[C@@H](Cc1ccccc1)C(N)=O) [AHX-c-Sub M ΔN3C1]
in vitro inhibitory activity relative to non-modified c-Sub M ΔN3C1 ([1]; f-Sub M, rhBACE1): half | reduction of amount of Aβ released ([4]; 6.25 μM, 9 h): about 70% | inhibition of Aβ production / APP processing in the cells [4]: reduced in a concentration dependent manner | forms of CTFβ whose accumulation is inhibited [5]: both forms | accumulation of cleavage product CTFβ [5]: inhibited accumulation

SEFCIQI (SEFCIQI-NH2) [c-SubM ΔC3]
inhibitory activity group on Substrate M cleavage [1]: most active

c-Sub M-R9: c-Sub M coupled with oligo-arginine (9 Arginines), labeled with FITC using a linker AHX ({FITC′-Ahx}-SEFCIQIHFRRRRRRRRRR)
inhibition of cleavage of Substrate M by β-secretase ([1]; rhBACE1): no inhibitory activity | inhibitory activity on APP processing ([2]; 10 μM): no inhibitory activity | inhibitory activity on APP processing ([2]; low concentration): some inhibitory activity

RLHLDLRLKA [Sub M-c]
inhibitory activity for cleavage of f-Sub M by rhBACE1 ([1]; HC peptide 1 mM, f-Sub M 10 μM): not | inhibition of cleavage of Substrate M by β-secretase ([1]; rhBACE1): do not inhibit cleavage | binding to Substrate M [3]: do not bind and not

β-secretase inhibitor IV [reference compound]
inhibition of production of Aβ ([4]; 2 μM): about 90% | forms of CTFβ whose accumulation is inhibited [5]: only the nonphosphorylated form | accumulation of cleavage product CTFβ [5]: inhibited accumulation

CIQI (CIQI-NH2) [C-Sub MΔN3C3]
inhibitory activity of deletion peptides on cleavage of Substrate M [1]: considerable inhibitory activity | inhibitory activity group on Substrate M cleavage [1]: medium activity

SEFC [c-Sub MΔC6]
inhibitory activity on APP processing ([2]; βCTF): none of the inhibitors tested showed inhibitory activity

CIQIHF (CIQIHF-NH2) [c-Sub M ΔN3C1]
inhibitory activity of deletion peptides on cleavage of Substrate M [1]: considerable inhibitory activity | inhibitory activity for cleavage of f-Sub M by rhBACE1 ([1]; HC peptide 0.5 mM, f-Sub M 10 μM (Table 2)): without sacrificing the inhibitory activity too much | inhibition of cleavage of Substrate M by β-secretase ([1]; rhBACE1): maintains much of the original activity of c-Sub M; also recorded: less active than longer HC peptide | inhibitory activity relative to c-Sub M ΔN1C1 ([1]; substrate concentration 10 μM): about one tenth | inhibitory activity group on Substrate M cleavage [1]: less activity

SEFCIHLHFR (SEFCIHLHFR-NH2) [c-Sub W]
binding to Substrate W [6]: bind | inhibitory activity for cleavage of f-Sub M by rhBACE1 ([1]; HC peptide 1 mM, f-Sub M 10 μM): higher inhibitory activity | inhibition of cleavage of Substrate M by β-secretase ([1]; rhBACE1): inhibit cleavage | inhibitory activity group on Substrate M cleavage [1]: medium activity | binding to Substrate M [3]: weak but significant binding

RLHFYLRLKA [Sub W-c]
binding to Substrate W [6]: do not bind | inhibition of cleavage of Substrate M by β-secretase ([1]; rhBACE1): do not inhibit cleavage
